Test results published in patent US9758503B1, “Coumarin-gossypol derivatives with antitumor activities and a method of preparing the same” (SHAANXI UNIVERSITY OF SCIENCE AND TECHNOLOGY, priority 2017, dated 2017).
Read-outs that look alike come from different tables or passages of the source.

Legend:
[1] = test system: human gastric cancer cells (SGC-7901); assay: MTT tumor cell proliferation inhibition test, SGC-7901; assay type: cell-based; conditions: read-out: Half Inhibitory Concentration IC50 SGC-7901
Method: (§1) The compounds of the present invention were subjected to tumor cell proliferation inhibition test, and conventional MTT method was used.
(§2) Cell lines: human hepatoma cells (HepG2), human lung cancer cells (A-549), human gastric cancer cells (SGC-7901). The culture medium was DMEM+15% NBS+double antibody.
(§3) Sample solution preparation: after dissolving with DMSO (Merck), PBS (−) was added to obtain 100 μmol/L solution or homogeneous suspension. The solution was diluted with PBS (−) in DMSO to a final concentration of 0.1, 1, 10, 20, 40, 60, 80, 100 μmol/L.
(§4) Gossypol was used as control solution, prepared under the same condition.
(§5) Cell culture: adherent growth Tumor cells were cultured in 1640 medium containing 10% inactivated neonatal bovine serum and penicillin, streptomycin (1 million U/L), placed in carbon dioxide incubator at 37° C., 5% CO2, and saturated humidity. Cells were treated serially passaged 2-3 times. The first culture was washed with PBS 2 times, and digested with trypsin. Fresh culture medium was added evenly, cells were adjusted to a appropriate concentration and transferred into a new culture flask. Cell in an exponential phase were chosen for the tests.
(§6) MTT Assay for Cell Viability and IC50 Determination:
(§7) Experimental Principle: Living cells mitochondria in the dehydrogenase can reduce yellow MTT to water-insoluble blue-violet product MT (MTT formazan), deposited in the cells. The amount of production is proportional to the number of living cells. […] DMSO can dissolve blue violet crystals, and the color depth is proportional to the amount contained, so the absorbance measured by the microplate reader can reflect the cell viability.
(§8) Methods: The exponential phase cells were digested and counted and seeded in 96-well plates at a density of 2×10^4/mL at 100 μl per well. After 24 hours of incubation, the cells to be tested were treated with 0.1, 1, 10, 20, 40, 60, 80, 100 μmol/L of the compounds. Each experimental group had 5 wells in each concentration, and the culture medium containing 0.4% DMSO was used as control. After 48 hours, the supernatant was discarded, and 100 μl of MTT ((2-(4,5-dimethyl-2-thiazolyl)-3,5-diphenyl-2H-[…]) (1 mg/mL) was added to each well. After another 4 hours, the supernatant was discarded, and 100 μl of DMSO was added to each well. After mixing, the absorbance was measured at 570 nm using a microplate reader. An IC50 calculation software was used to determine the half inhibitory concentration (IC50).

[2] = test system: human lung cancer cells (A-549); assay: MTT tumor cell proliferation inhibition test, A-549; assay type: cell-based; conditions: read-out: Half Inhibitory Concentration IC50 A549
Method: as §1, §2, §3, §4, §5, §6, §7, §8

[3] = test system: human hepatoma cells (HepG2); assay: MTT tumor cell proliferation inhibition test, HepG2; assay type: cell-based; conditions: read-out: Half Inhibitory Concentration IC50 HepG2
Method: as §1, §2, §3, §4, §5, §6, §7, §8

[4] = test system: three cell lines tested (HepG2, A-549, SGC-7901); assay: MTT tumor cell proliferation inhibition test, summary over the three cell lines; assay type: cell-based, human
Method: as §1, §2, §3, §4
as §5, with “Cell in an exponential phase were chosen for the tests.” left out
as §7, with “the” for “the cells. The amount of production is proportional to the number of living”
as §8, with “After 24 hours of incubation, the cells to be tested were treated with 0.1, 1, 10, 20, 40, 60, 80, 100 μmol/L of the compounds. Each experimental group had 5 wells in each concentration, and the culture medium containing 0.4% DMSO was used as control.” left out

[5] = SGC-7901 cells, MTT, 48 hours treatment
[6] = A549 cells, MTT, 48 hours treatment
[7] = HepG2 cells, MTT, 48 hours treatment

Compound	IC50 [1, 5] [µM]	IC50 [2, 6] [µM]	IC50 [3, 7] [µM]	IC50 ([1]; SGC-7901, 48 h) [µM]	IC50 ([2]; A549, 48 h) [µM]	IC50 ([3]; HepG2, 48 h) [µM]	antitumor activities (verbal summary) [4]
Cc1cc2c(c(O)c1-c1c(C)cc3c(C(C)C)c(O)c(O)c(C=O)c3c1O)/C(=C/c1c(O)c3cc(Cl)ccc3oc1=O)C(=O)C(O)=C2C(C)C [Compound A-2, (Z)-8′-((6-chloro-4-hydroxy-2-oxo-2H-chromen-3-yl)methylene)-1,1′,6,6′,7-pentahydroxy-5,5′-diisopropyl-3,3′-dimethyl-7′-oxo-7′,8′-dihydro-[2,2′-binaphthalene]-8-carbaldehyde]	> 100	> 100	> 100				
Cc1cc2c(c(O)c1-c1c(C)cc3c(C(C)C)c(O)c(O)c(C=O)c3c1O)/C(=C/c1c(O)c3c(O)cc(O)cc3oc1=O)C(=O)C(O)=C2C(C)C [Compound A-5, (Z)-1,1′,6,6′,7-pentahydroxy-5,5′-diisopropyl-3,3′-dimethyl-7′-oxo-8′-((4,5,7-trihydroxy-2-oxo-2H-chromen-3-yl)methylene)-7′,8′-dihydro-[2,2′-binaphthalene]-8-carbaldehyde]	88.8 ± 3.02	> 100	> 100				
Cc1cc2c(C(C)C)c(O)c(O)c(C=O)c2c(O)c1-c1c(C)cc2c(C(C)C)c(O)c(O)c(C=O)c2c1O [Gossypol]				43.6 ± 2.03	26.3 ± 1.89	18.4 ± 0.71	
Cc1cc2c(c(O)c1-c1c(C)cc3c(C(C)C)c(O)c(O)c(C=O)c3c1O)/C(=C/c1c(O)c3ccc(O)cc3oc1=O)C(=O)C(O)=C2C(C)C [Compound A-3, (Z)-8′-((4,7-dihydroxy-2-oxo-2H-chromen-3-yl)methylene)-1,1′,6,6′,7-pentahydroxy-5,5′-diisopropyl-3,3′-dimethyl-7′-oxo-7′,8′-dihydro-[2,2′-binaphthalene]-8-carbaldehyde]	30.7 ± 1.31	26.7 ± 1.12	17.8 ± 0.95				good antitumor activities
COc1cccc2c(O)c(/C=C3\C(=O)C(O)=C(C(C)C)c4cc(C)c(-c5c(C)cc6c(C(C)C)c(O)c(O)c(C=O)c6c5O)c(O)c43)c(=O)oc12 [Compound A-4, (Z)-1,1′,6,6′,7-pentahydroxy-8′-((4-hydroxy-8-methoxy-2-oxo-2H-chromen-3-yl)methylene)-5,5′-diisopropyl-3,3′-dimethyl-7′-oxo-7′,8′-dihydro-[2,2′-binaphthalene]-8-carbaldehyde]	31.2 ± 1.33	43.4 ± 1.21	26.5 ± 1.02				
Cc1cc2c(c(O)c1-c1c(C)cc3c(C(C)C)c(O)c(O)c(C=O)c3c1O)/C(=C/c1c(O)c3ccccc3oc1=O)C(=O)C(O)=C2C(C)C [Compound A-1, (Z)-1,1′,6,6′,7-pentahydroxy-8′-((4-hydroxy-2-oxo-2H-chromen-3-yl)methylene)-5,5′-diisopropyl-3,3′-dimethyl-7′-oxo-7′,8′-dihydro-[2,2′-binaphthalene]-8-carbaldehyde]	21.3 ± 1.34	17.1 ± 0.72	10.7 ± 0.65				best antitumor activities

The next lines start with results.

IC50 [1, 5] [µM]	IC50 [2, 6] [µM]	IC50 [3, 7] [µM]	Compound	IC50 ([1]; SGC-7901, 48 h) [µM]	IC50 ([2]; A549, 48 h) [µM]	IC50 ([3]; HepG2, 48 h) [µM]	antitumor activities (verbal summary) [4]
40 ± 1.43	38.4 ± 0.79	22.4 ± 0.58	COc1cccc2c(O)c(/C=C3\C(=O)C(O)=C(C(C)C)c4cc(C)c(-c5c(C)cc6c(c5O)/C(=C/c5c(O)c7cccc(OC)c7oc5=O)C(=O)C(O)=C6C(C)C)c(O)c43)c(=O)oc12 [Compound B-4, (8Z,8′Z)-1,1′,6,6′-tetrahydroxy-8,8′-bis((4-hydroxy-8-methoxy-2-oxo-2H-chromen-3-yl)methylene)-5,5′-diisopropyl-3,3′-dimethyl-[2,2′-binaphthalene]-7,7′(8H,8′H)-dione]				
> 100	> 100	58.6 ± 3.23	Cc1cc(C)c2c(O)c(/C=C3\C(=O)C(O)=C(C(C)C)c4cc(C)c(-c5c(C)cc6c(c5O)/C(=C/c5c(O)c7c(C)cc(C)cc7oc5=O)C(=O)C(O)=C6C(C)C)c(O)c43)c(=O)oc2c1 [Compound B-6, (8Z,8′Z)-1,1′,6,6′-tetrahydroxy-8,8′-bis((4-hydroxy-5,7-dimethyl-2-oxo-2H-chromen-3-yl)methylene)-5,5′-diisopropyl-3,3′-dimethyl-[2,2′-binaphthalene]-7,7′(8H,8′H)-dione]				
54.3 ± 2.85	> 100	> 100	Cc1cc2c(c(O)c1-c1c(C)cc3c(c1O)/C(=C/c1c(O)c4c(O)cc(O)cc4oc1=O)C(=O)C(O)=C3C(C)C)/C(=C/c1c(O)c3c(O)cc(O)cc3oc1=O)C(=O)C(O)=C2C(C)C [Compound B-5, (8Z,8′Z)-1,1′,6,6′-tetrahydroxy-5,5′-diisopropyl-3,3′-dimethyl-8,8′-bis((4,5,7-trihydroxy-2-oxo-2H-chromen-3-yl)methylene)-[2,2′-binaphthalene]-7,7′(8H,8′H)-dione]				
32.6 ± 1.81	> 100	42.1 ± 1.04	Cc1cc(C)c2c(O)c(/C=C3\C(=O)C(O)=C(C(C)C)c4cc(C)c(-c5c(C)cc6c(C(C)C)c(O)c(O)c(C=O)c6c5O)c(O)c43)c(=O)oc2c1 [Compound A-6, (Z)-1,1′,6,6′,7-pentahydroxy-8′-((4-hydroxy-5,7-dimethyl-2-oxo-2H-chromen-3-yl)methylene)-5,5′-diisopropyl-3,3′-dimethyl-7′-oxo-7′,8′-dihydro-[2,2′-binaphthalene]-8-carbaldehyde]				
33.2 ± 1.01	28.6 ± 0.64	16.7 ± 0.45	Cc1cc2c(c(O)c1-c1c(C)cc3c(c1O)/C(=C/c1c(O)c4ccc(O)cc4oc1=O)C(=O)C(O)=C3C(C)C)/C(=C/c1c(O)c3ccc(O)cc3oc1=O)C(=O)C(O)=C2C(C)C [Compound B-3, (8Z,8′Z)-8,8′-bis((4,7-dihydroxy-2-oxo-2H-chromen-3-yl)methylene)-1,1′,6,6′-tetrahydroxy-5,5′-diisopropyl-3,3′-dimethyl-[2,2′-binaphthalene]-7,7′(8H,8′H)-dione]				
> 100	68.5 ± 2.44	> 100	Cc1cc2c(c(O)c1-c1c(C)cc3c(c1O)/C(=C/c1c(O)c4cc(Cl)ccc4oc1=O)C(=O)C(O)=C3C(C)C)/C(=C/c1c(O)c3cc(Cl)ccc3oc1=O)C(=O)C(O)=C2C(C)C [Compound B-2, (8Z,8′Z)-8,8′-bis((6-chloro-4-hydroxy-2-oxo-2H-chromen-3-yl)methylene)-1,1′,6,6′-tetrahydroxy-5,5′-diisopropyl-3,3′-dimethyl-[2,2′-binaphthalene]-7,7′(8H,8′H)-dione]				
26.9 ± 1.35	22.3 ± 0.9	15.2 ± 0.34	Cc1cc2c(c(O)c1-c1c(C)cc3c(c1O)/C(=C/c1c(O)c4ccccc4oc1=O)C(=O)C(O)=C3C(C)C)/C(=C/c1c(O)c3ccccc3oc1=O)C(=O)C(O)=C2C(C)C [Compound B-1, (8Z,8′Z)-1,1′,6,6′-tetrahydroxy-8,8′-bis((4-hydroxy-2-oxo-2H-chromen-3-yl)methylene)-5,5′-diisopropyl-3,3′-dimethyl-[2,2′-binaphthalene]-7,7′(8H,8′H)-dione]				good antitumor activities
